Tests used:
[1] = test system: healthy colonic epithelium of the rat; assay: Tissue staining by charged dyes, healthy colonic sacs; conditions: 15 min incubation, mean±SEM
Protocol: Colonic sacs, of either healthy or inflamed rat colonic tissues, were prepared as described above and filled, in separate studies, with 0.5 ml of aqueous solutions (containing 2% v/v DMSO) of either of the cationic dye, hematoxylin (1 mg/ml), or the anionic dye, eosin B (0.5 mg/ml). The sacs were incubated in 15 ml of PBS containing glucose (10 mM), at 37° C. (glass vial) for 15 min in a shaking bath, after which the sacs were cut open, measured for their surface area (ruler) and rinsed (PBS) three times. The tissues incubated with eosin B were then homogenized in 3 ml of absolute methanol, while the tissues incubated with hematoxylin were homogenized in 3 ml of absolute ethanol. The concentration of dyes in the tissue homogenates was measured spectrophotometrically (Uvikon 933, Kontron Switzerland), at 292 nm (hematoxylin) or 523 nm (eosin B).

[2] = test system: inflamed colonic epithelium of the rat; assay: Tissue staining by charged dyes, inflamed colonic sacs; conditions: 15 min incubation, mean±SEM
Protocol: Twenty-four hours prior to colitis induction the rats were deprived of food, but allowed free access to water. The water contained 10 mg/l of the laxatives sennoside-A and sennoside-B (X-Prep Liquid®, Rafa Pharmaceuticals, Israel) and sucrose (200 g/l). With the rats under light ether inhalation anesthesia, colitis was induced by intracolonic administration of 30 mg of dinitrobenzensulfonic acid (DNBS) dissolved in 1 ml of an ethanolic solution 25% (v/v). The solution was instilled slowly over 20 s via a flexible, perforated foley catheter, which was then immediately removed, leaving the rats in an upside down position for another 40 s. Colonic sacs, of either healthy or inflamed rat colonic tissues, were prepared as described above and filled, in separate studies, with 0.5 ml of aqueous solutions (containing 2% v/v DMSO) of either of the cationic dye, hematoxylin (1 mg/ml), or the anionic dye, eosin B (0.5 mg/ml). The sacs were incubated in 15 ml of PBS containing glucose (10 mM), at 37° C. (glass vial) for 15 min in a shaking bath, after which the sacs were cut open, measured for their surface area (ruler) and rinsed (PBS) three times. […] The concentration of dyes in the tissue homogenates was measured spectrophotometrically (Uvikon 933, Kontron Switzerland), at 292 nm (hematoxylin) or 523 nm (eosin B).

tumor recurrence = conditions: animal model, peritoneal wound site; cited from earlier work
[3] = test system: epithelium of the rat intestine; assay: Tissue uptake of free and liposomal SOD and TMN in intestinal sacs; conditions: for tissue uptake: 60 min incubation, mean±SEM
Protocol: The abdomens of anesthetized healthy Sabra rats were cut open and 10 cm long segments of the distal colon were excised, separated and rinsed with PBS. Colon sacs (5 cm each) were prepared by tying one end with 3/0 silk suture, filling with 0.4 ml of free or liposomal suspension of either TMN or FITC-SOD (diluted×10 in PBS), and tying at the other end.
The sacs were incubated in 15 ml of PBS, containing 10 mM glucose, at 37° C., in a glass vial in a shaking bath for 60 min. At the end of the incubation, the sacs were cut open, rinsed three times by PBS immersion and weighed. For detection of FITC-SOD attachment and uptake (subsequently referred to generally as uptake, as internalization and attachment cannot be discriminated using these methods), the colon sac preparations were homogenized (Polytron, Kinematicas, Berlin, Germany) in a solution containing isopropanol: pH 9.0 borate buffer 9:1. One milliliter of the homogenate was centrifuged at 14,000 rpm for 15 min. The level of fluorescence in the supernatant was then measured by a spectrofluorimeter (Perkin-Elmer LS-SB, Bucks, England) at λ excitation=495, λ emission=525. For the detection of TMN uptake, tissues were homogenized in water containing 1% v/v TritonX-100. One ml of the homogenate was centrifuged (5000 rpm, 15 min), and TMN concentration was measured by EPR.

jejunal mucosa = assay: Local oxidative stress (hypoxanthine/xanthine oxidase-FeSO4) in perfused rat jejunum; assay type: in vivo; conditions: 20 min perfusion pretreatment before hydroxyl radical induction; for tissue LDH activity: mean±SEM
Protocol: Hydroxyl radicals were induced in the jejunum (15 cm long segment) of each of four group of anaesthetized Sabra rats, by the perfusion of a mixture of 6 mM hypoxanthine, 3 U/ml of xanthine oxidase, 10 mM FeSO4 and 1 mM EDTA in saline over 30 min, using a closed rat jejunal loop system at a rate of 1 ml/min, as described elsewhere [Kohen R. et al. J. Biol Chem. 1992, 267:21349-21354].
In separate studies two groups of rats (4 rats in each group) were perfused with either 35 U/ml SOD or liposomal SOD over 20 min. A 10 min saline rinse was then performed, followed by the hydroxyl radicals induction as described above. Similarly, the other two groups (4 rats each) were perfused with 5 mM free TMN or liposomal TMN over 20 min. A 10 min saline rinse was then performed, followed by hydroxyl radicals induction as described above. Control studies included (a) a group of rats, perfused with normal saline over 30 minutes prior to the oxidative damage induction, (b) a group of rats, perfused with normal saline for 20 min (naive control). At the end of each study, the perfused jejunal segment was separated from the anaesthetized animal, the mucosal epithelial layer delicately scraped and homogenized in 5 ml of distilled water on ice.
Assuming that tissue insult would cause leakage of enterocyte contents, the induced damage was characterized by measuring tissue (a) activity of lactate dehydrogenase (LDH) at 340 nm with pyruvic acid as the substrate and NADH as the electron donor. For this purpose, 1 ml of the tissue homogenate was centrifuged at 5000 g for 15 min. LDH activity was measured in the supernatant; (b) potassium levels by atomic absorption. All measurements were repeated four times, and the results were normalized to tissue dry weight.

Molecule | dye attachment to healthy colonic epithelium [1] [μg/cm^2] | dye attachment to inflamed colonic epithelium [2] [μg/cm^2] | reduction of tumor recurrence (tumor recurrence) [%] | tissue uptake relative to free SOD uptake [3] [fold] | tissue uptake [3] | tissue potassium levels (jejunal mucosa) [μmol/mg tissue] | tissue LDH activity (jejunal mucosa) [U/mg tissue]
Oc1cc2c(cc1O)[C@@H]1c3ccc(O)c(O)c3OC[C@]1(O)C2 [hematoxylin] | 26.2±2.8 | 19.6±1.36 | – | – | – | – | –
catalase | – | – | 40 | – | – | – | –
CC1(C)CC(N)CC(C)(C)N1[O] [free TMN, 4-amino tempol] | – | – | – | 3 | 6.8±1.1 % uptake of initial amount | 0.33±0.08 | 9.0±1.3
superoxide dismutase [native SOD] | – | – | 50 | – | 2.5±1.6 % uptake of initial amount | 0.37±0.03 | 11.8±0.3
O=C(O)c1ccccc1-c1c2cc([N+](=O)[O-])c(=O)c(Br)c-2oc2c(Br)c(O)c([N+](=O)[O-])cc12 [eosin B] | 0.12±0.011 | 0.19±0.012 | – | – | – | – | –

Reference: patent US20070212403A1, “Method for Selecting Cationic or Anionic Liposomes for Treatment of a Mucosa Membrane, and Kit Comprising the Same” (Yissum Research Development Company of the Hebrew …, priority 2003, published 2007)
